For this experiment, the target named is T1, Ubiquitin carboxyl-terminal hydrolase 1 (Homo sapiens, UniProt O94782).
T1 sequence (O94782 whole entry): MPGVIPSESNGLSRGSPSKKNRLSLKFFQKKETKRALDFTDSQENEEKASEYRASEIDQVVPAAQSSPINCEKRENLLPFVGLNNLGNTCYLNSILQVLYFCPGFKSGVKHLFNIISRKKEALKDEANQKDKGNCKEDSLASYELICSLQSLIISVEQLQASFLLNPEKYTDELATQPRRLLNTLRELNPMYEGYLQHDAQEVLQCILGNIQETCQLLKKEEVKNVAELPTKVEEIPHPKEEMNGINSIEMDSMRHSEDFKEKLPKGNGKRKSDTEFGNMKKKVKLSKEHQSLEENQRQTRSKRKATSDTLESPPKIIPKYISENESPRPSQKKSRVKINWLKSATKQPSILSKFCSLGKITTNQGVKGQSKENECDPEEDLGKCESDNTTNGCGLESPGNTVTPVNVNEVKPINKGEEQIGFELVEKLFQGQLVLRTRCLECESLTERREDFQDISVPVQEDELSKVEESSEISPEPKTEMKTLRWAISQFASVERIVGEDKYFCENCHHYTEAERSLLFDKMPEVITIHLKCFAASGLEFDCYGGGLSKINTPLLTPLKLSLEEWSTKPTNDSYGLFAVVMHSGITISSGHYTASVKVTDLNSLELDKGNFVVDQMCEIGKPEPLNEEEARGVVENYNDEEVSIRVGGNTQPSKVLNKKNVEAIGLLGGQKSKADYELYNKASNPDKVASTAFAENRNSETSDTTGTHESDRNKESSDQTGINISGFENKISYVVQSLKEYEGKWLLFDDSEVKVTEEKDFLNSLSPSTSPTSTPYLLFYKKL
In words: Experimental Method of USP1 Enzyme Activity.

SMILES strings stand for the structures.

Text: USPli compounds were screened by USP1 enzyme activity detection experiment.1.1 Experimental materials: recombinant human His6-USP1/His6-UAF1 composite protein.

By IC50 is commonly meant the point on the concentration scale where inhibition reaches its midpoint. A high value points to weaker potency. Turning to `COc1cnn(C2CC2)c1-c1ncc2c3ccncc3n(Cc3ccc(-c4nc(C(F)(F)F)cn4C)cc3)c2n1` [US20250368667, Compound 103], the IC50 turned out to be 12.3 nM.
As for `COc1ncnc(C2CC2)c1-c1ncc2c3ccc(C(C)C)nc3n(Cc3ccc4c(c3)CCCn3cc(C(F)(F)F)nc3-4)c2n1` [US20250368667, Compound 105], the concentration for half-maximal inhibition (IC50) is 5.17 nM.
The value for `[2H]C([2H])([2H])Oc1ncnc(C2CC2)c1-c1ncc2c3cn(C)nc3n(Cc3ccc(-c4nc(C(F)(F)F)cn4C(C)C)cc3)c2n1` [US20250368667, Compound 162] was 5.49 nM.
The figure for `COc1ncnc(C2CC2)c1-c1ncc2c3ccc(=O)[nH]c3n(Cc3ccc4c(c3)CCCn3cc(C(F)(F)F)nc3-4)c2n1` [US20250368667, Compound 159] is 16.6 nM.
